The values below come from US7652153B2, “Caspase inhibitors and uses thereof” (Vertex Pharmaceuticals Incorporated, priority 2004, dated 2010).

For one assay, the target named is T1, caspase-1 (Homo sapiens, UniProt P29466).
T1 sequence (P29466 120-297 limits assumed): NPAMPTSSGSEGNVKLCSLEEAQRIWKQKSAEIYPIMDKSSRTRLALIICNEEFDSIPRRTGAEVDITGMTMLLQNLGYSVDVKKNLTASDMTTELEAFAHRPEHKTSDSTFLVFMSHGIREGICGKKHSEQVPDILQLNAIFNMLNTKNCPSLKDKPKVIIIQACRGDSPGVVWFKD
T1 sequence (P29466 317-404 limits assumed): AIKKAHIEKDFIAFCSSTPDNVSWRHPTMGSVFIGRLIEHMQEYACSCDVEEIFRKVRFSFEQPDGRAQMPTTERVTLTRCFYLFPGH
Briefly: Caspase-1 enzyme inhibition (Ki, method of Margolin et al.). Format: biochemical. The settings on record: Suc-YVAD-pNA substrate 80 μM, 37° C., pH 7.5; read-out: Ki C1. Put shortly:
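Enzyme (0.5-40 nM active, by active-site titration) preincubated 15 min at 37° C with inhibitor in 10 mM Tris pH 7.5, 1 mM DTT, 0.1% CHAPS. Reaction started with Suc-YVAD-pNA (80 μM final), rate followed by absorbance at 405 nm at 37° C. Ki from Morrison tight-binding fit for competitive inhibitors.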

The next assay concerns the target caspase-8 (Homo sapiens, UniProt Q14790). The experiment in a line: Caspase-8 enzyme inhibition (Ki, method of Margolin et al.). The conditions noted are these: Ac-DEVD-pNA substrate 80 μM, 37° C., pH 7.5; read-out: Ki C8. The class given is biochemical. Put shortly:
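Caspase (0.5-40 nM active, by active-site titration) preincubated with inhibitor 15 min at 37° C in 10 mM Tris pH 7.5, 1 mM DTT, 0.1% CHAPS. Reaction started with Ac-DEVD-pNA (80 μM final), rate followed by absorbance at 405 nm; Ki from Morrison tight-binding fit for competitive inhibitors.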

pKi: −log10 of the molar value.

Chain of caspase-8 (Q14790 217-374 limits assumed, species assumed): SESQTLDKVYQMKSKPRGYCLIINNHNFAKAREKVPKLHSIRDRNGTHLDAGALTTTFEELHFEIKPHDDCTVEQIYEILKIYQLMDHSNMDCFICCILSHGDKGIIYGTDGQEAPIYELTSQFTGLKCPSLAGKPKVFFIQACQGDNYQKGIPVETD
Chain of caspase-8 (Q14790 385-479 limits assumed, species assumed): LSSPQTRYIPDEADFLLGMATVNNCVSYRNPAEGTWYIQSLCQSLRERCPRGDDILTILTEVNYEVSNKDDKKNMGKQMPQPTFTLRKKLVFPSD

In general, pKi refers to the negative decadic logarithm of the Ki, by convention in mol/L. Turning to `CC(=O)Nc1cccc(C(=O)N[C@H](C(=O)N2CCC[C@H]2C(=O)N[C@H](C=O)CC(=O)O)C(C)(C)C)c1Cl` [II-41, (S,S,S)-(3S)-({1-[(2S)-(2-Chloro-3-acetamido-benzoylamino)-3,3-dimethyl-butyryl]-pyrrolidine-(2S)-carbonyl}-amino)-4-oxo-butyric acid], the pKi at caspase-1 and at caspase-8 was more than 8.00 throughout.

Regarding `CC(C)(C)[C@H](NC(=O)c1nccc2ccccc12)C(=O)N1[C@@H]2CC[C@@H](C2)[C@H]1C(=O)N[C@H](C=O)CC(=O)O` (stereo in doubt) [II-64, (3S)-({2-[(2S)-(Isoquinolin-1-ylcarbonylamino)-3,3-dimethyl-butyryl]-2-(1S,4R)-aza-bicyclo[2.2.1]heptane-(3S)-carbonyl}-amino)-4-oxo-butyric acid], the pKi on caspase-1 and on caspase-8 was 7.70 to 8.00 throughout.

Take `COc1ccc(C(=O)N[C@H](C(=O)N2CCC[C@H]2C(=O)N[C@H](C=O)CC(=O)O)C(C)C)c(Cl)c1` [II-37, (S,S,S)-(3S)-({1-[(2S)-(2-chloro-4-methoxy-benzoylamino)-3-methyl-butyryl]-pyrrolidine-(2S)-carbonyl}-amino)-4-oxo-butyric acid]: the results for the negative-log Ki (pKi) on caspase-1 and at caspase-8 were more than 8.00 and 7.70 to 8.00, respectively.

Turning to `CC(C)Oc1ccc(C(=O)N[C@H](C(=O)N2CCC[C@H]2C(=O)N[C@H](C=O)CC(=O)O)C(C)C)c(Cl)c1` [II-46, (S,S,S)-(3S)-({1-[(2S)-(2-chloro-4-isopropyloxy-benzoylamino)-3-methyl-butyryl]-pyrrolidine-(2S)-carbonyl}-amino)-4-oxo-butyric acid], the negative-log Ki (pKi) on caspase-1 was more than 8.00; on caspase-8 it was 7.52 to 7.68.

Turning to `CC(C)[C@H](NC(=O)c1ccc(N)c(Cl)c1)C(=O)N1[C@@H]2CC[C@@H](C2)[C@H]1C(=O)N[C@H](C=O)CC(=O)O` (stereo in doubt) [II-66, (3S)-({2-[(2S)-(4-Amino-3-chloro-benzoylamino)-3-methyl-butyryl]-2-(1S,4R)-aza-bicyclo[2.2.1]heptane-(3S)-carbonyl}-amino)-4-oxo-butyric acid], the pKi is 7.70 to 8.00 at caspase-1 and more than 8.00 at caspase-8.
